Target: MDM2 (Homo sapiens, UniProt Q00987)
Experiment: MDM2 binding screen of Libraries 3 and 4: displacement of fluorescent probe F-M8 at 750 nM macrocycle
Method: The cyclic peptide scaffolds required for Libraries 3 and 4 were synthesized as described for those used in Library 2. Due to the presence of many N-methylated amino acids which are more difficult to couple, 200 mM HOAt was applied together with HATU. The scaffolds were diluted to 2 mM in DMSO, and 15 nL were transferred using acoustic dispensing, followed by 15 nL DMSO containing carboxylic acids (40 mM, 20 equiv.), HBTU (40 mM) and DABCO (40 mM). After 6 h reaction at room temperature, 370 nL of DMSO was added to each well, followed by 5 μL of 100 mM Tris-Cl pH 7.4 containing 0.01% v/v Tween20, for quenching overnight.

[1] = Panel b, Library 3: 63 scaffolds combinatorially acylated with 15 carboxylic acids at 30 picomole scale, displacement of fluorescent peptide probe, macrocycle 750 nM
[2] = Panel c, Library 4: best nine scaffolds and 15 additional carboxylic acids, displacement of fluorescent probe

MDM2, sequence (Q00987 whole entry): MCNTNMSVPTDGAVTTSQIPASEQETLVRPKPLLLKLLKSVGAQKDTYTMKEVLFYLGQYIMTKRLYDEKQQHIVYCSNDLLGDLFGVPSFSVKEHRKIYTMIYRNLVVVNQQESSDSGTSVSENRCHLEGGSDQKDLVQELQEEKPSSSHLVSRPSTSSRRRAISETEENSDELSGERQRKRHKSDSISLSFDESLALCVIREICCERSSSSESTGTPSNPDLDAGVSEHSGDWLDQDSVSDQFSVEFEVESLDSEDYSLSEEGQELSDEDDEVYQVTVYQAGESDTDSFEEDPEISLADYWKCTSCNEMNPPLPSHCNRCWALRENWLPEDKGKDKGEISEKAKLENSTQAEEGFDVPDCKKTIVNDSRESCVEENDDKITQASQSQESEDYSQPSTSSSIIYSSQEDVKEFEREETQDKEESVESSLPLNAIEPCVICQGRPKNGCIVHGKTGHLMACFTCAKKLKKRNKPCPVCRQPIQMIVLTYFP

Question: For `Cn1cc(C[C@@H]2NC(=O)[C@H](CNC(=O)/C=C/c3ccc(OCc4ccccc4)cc3)NC(=O)C3(CC3)CNC(=O)CCSSCCNC2=O)c2ccccc21` [X-Amcp-Dap-Me-Trp + Acid 110], which “fraction of fluorescent probe displaced” value [1] is on record?
Answer: 0.008

Question: With `Cn1cc(C[C@@H]2NC(=O)[C@@H](CNC(=O)/C=C/c3ccc4ccccc4c3)NC(=O)[C@H]3CCCN(C3)C(=O)CCSSCCNC2=O)c2ccccc21` [X-Nip-D-Dap-Me-Trp + Acid 112] as the molecule, how does the “fraction of fluorescent probe displaced” value [1] read?
Answer: 0.021

Question: For `CN1C(=O)[C@H](CNC(=O)CCS(=O)(=O)c2ccccc2)NC(=O)[C@H]2CCCN(C2)C(=O)CCSSCCNC(=O)[C@@H]1Cc1c[nH]c2ccccc12` [X-Nip-Dap-NMe-Trp + Acid 114], which “fraction of fluorescent probe displaced” value [1] is on record?
Answer: 0.021

Question: Which “fraction of fluorescent probe displaced” value [1] does the source give for `CN1C(=O)CN(CCNC(=O)/C=C/c2ccc3ccccc3c2)C(=O)[C@@H]2CN(CCO2)C(=O)CCSSCCNC(=O)[C@@H]1Cc1c[nH]c2ccccc12` [X-Cop-N-Aeg-NMe-Trp + Acid 112] here?
Answer: 0.015

Question: `O=C(C=Cc1ccncc1)NCC1NC(=O)C2CN(CCO2)C(=O)CCSSCCNC(=O)C(Cc2c[nH]c3cc(Cl)ccc23)NC1=O` (stereo not drawn) [X-Cop-Dap-Cl-Trp + Acid 106] was tested. Which “fraction of fluorescent probe displaced” value [1] did it give?
Answer: 0.284

Question: `O=C(NC[C@@H]1NC(=O)[C@@H]2CN(CCO2)C(=O)CCSSCCNC(=O)[C@H](Cc2c[nH]c3ccccc23)NC1=O)C1COc2ccccc2O1` (stereo partly drawn) [X-Cop-Dap-Trp + Acid 115] was tested. Which “fraction of fluorescent probe displaced” value [1] did it give?
Answer: -0.00533

Question: How did the “fraction of fluorescent probe displaced” value [1] turn out when `O=C(NC[C@@H]1NC(=O)[C@H]2CCCN(C2)C(=O)CCSSCCNC(=O)[C@H](Cc2cccc3ccccc23)NC1=O)c1ccc(Cl)s1` [X-Nip-Dap-1-NaI + Acid 14] was run?
Answer: 0.028

Question: For `Cn1cc(C[C@@H]2NC(=O)[C@H](CNC(=O)c3ccc(Cl)s3)NC(=O)[C@H]3CCCN(C3)C(=O)CCSSCCNC2=O)c2ccccc21` [X-Nip-Dap-Me-Trp + Acid 14], which “fraction of fluorescent probe displaced” value [1] is on record?
Answer: 0.028

Question: `CCOc1ccc(/C=C/C(=O)NC[C@@H]2NC(=O)[C@H]3CCCN(C3)C(=O)CCSSCCNC(=O)[C@H](Cc3c[nH]c4ccccc34)NC2=O)cc1` [X-Nip-Dap-Trp + Acid 117] was tested. Which “fraction of fluorescent probe displaced” value [2] did it give?
Answer: 0.533

Question: How did the “fraction of fluorescent probe displaced” value [1] turn out when `O=C1CN(CCNC(=O)c2ccc3ccccc3c2)C(=O)[C@@H]2CN(CCO2)C(=O)CCSSCCNC(=O)[C@H](Cc2c[nH]c3cc(Cl)ccc23)N1` [X-Cop-N-Aeg-Cl-Trp + Acid 107] was run?
Answer: 0.00455

Question: How did the “fraction of fluorescent probe displaced” value [1] turn out when `O=C(NC[C@@H]1NC(=O)[C@@H]2CN(CCO2)C(=O)CCSSCCNC(=O)[C@H](Cc2c[nH]c3ccccc23)NC1=O)c1cccc(Oc2ccccc2)c1` [X-Cop-Dap-Trp + Acid 111] was run?
Answer: 0.048

Question: `CC(Oc1cccc(Cl)c1)C(=O)NCCN1CC(=O)N[C@@H](Cc2ccc3ccccc3c2)C(=O)NCCSSCCC(=O)N2CCC[C@@H](C2)C1=O` (stereo partly drawn) [X-Nip-N-Aeg-2-Nal + Acid 113] was tested. Which “fraction of fluorescent probe displaced” value [1] did it give?
Answer: 0.00133

Question: For `CCOc1ccc(/C=C/C(=O)NC[C@@H]2NC(=O)[C@H]3CCCN(C3)C(=O)CCSSCCNC(=O)[C@H](Cc3cccc4ccccc34)NC2=O)cc1` [X-Nip-Dap-1-NaI + Acid 117], which “fraction of fluorescent probe displaced” value [2] is on record?
Answer: 0.069

Question: With `Cn1cc(C[C@@H]2NC(=O)CN(CCNC(=O)c3ccc4ccccc4c3)C(=O)[C@@H]3CN(CCO3)C(=O)CCSSCCNC2=O)c2ccccc21` [X-Cop-N-Aeg-Me-Trp + Acid 107] as the molecule, how does the “fraction of fluorescent probe displaced” value [1] read?
Answer: 0.00455

Question: With `O=C(CCS(=O)(=O)c1ccccc1)NC[C@@H]1NC(=O)C2(CC2)CNC(=O)CCSSCCNC(=O)[C@@H](Cc2c[nH]c3ccccc23)NC1=O` [X-Amcp-Dap-D-Trp + Acid 114] as the molecule, how does the “fraction of fluorescent probe displaced” value [1] read?
Answer: 0.035

Question: Which “fraction of fluorescent probe displaced” value [1] does the source give for `Cn1cc(C[C@@H]2NC(=O)[C@@H](CNC(=O)c3ccc(Cl)cc3)NC(=O)[C@H]3CCCN(C3)C(=O)CCSSCCNC2=O)c2ccccc21` [X-Nip-D-Dap-Me-Trp + Acid 25] here?
Answer: -0.00533

Question: How did the “fraction of fluorescent probe displaced” value [1] turn out when `O=C(/C=C/c1ccc2ccccc2c1)NC[C@@H]1NC(=O)[C@@H]2CN(CCO2)C(=O)CCSSCCNC(=O)[C@H](Cc2c[nH]c3ccccc23)NC1=O` [X-Cop-Dap-Trp + Acid 112] was run?
Answer: 0.168

Question: How did the “fraction of fluorescent probe displaced” value [2] turn out when `CCOc1ccc(/C=C/C(=O)NC[C@@H]2NC(=O)[C@H]3CCCN(C3)C(=O)CCSSCCNC(=O)[C@H](Cc3ccc4ccccc4c3)NC2=O)cc1` [X-Nip-Dap-2-Nal + Acid 117] was run?
Answer: 0.069

Question: How did the “fraction of fluorescent probe displaced” value [2] turn out when `O=C(O)c1cnc2ccccc2n1` [Acid 130] was run?
Answer: 0.0035

Question: How did the “fraction of fluorescent probe displaced” value [1] turn out when `O=C1CCSSCCNC(=O)[C@H](Cc2ccc3ccccc3c2)NC(=O)CN(CCNC(=O)c2ccc(Cl)s2)C(=O)C2(CC2)CN1` [X-Amcp-N-Aeg-2-Nal + Acid 14] was run?
Answer: -0.032

Question: With `O=C(/C=C/c1ccc2ccccc2c1)NC[C@@H]1NC(=O)[C@H]2CCCN(C2)C(=O)CCSSCCNC(=O)[C@H](Cc2c[nH]c3cc(Cl)ccc23)NC1=O` [X-Nip-Dap-Cl-Trp + Acid 112] as the molecule, how does the “fraction of fluorescent probe displaced” value [1] read?
Answer: 0.221

Question: With `CN1C(=O)[C@@H](CNC(=O)c2ccc(Cl)cc2)NC(=O)[C@@H]2CN(CCO2)C(=O)CCSSCCNC(=O)[C@@H]1Cc1c[nH]c2ccccc12` [X-Cop-D-Dap-NMe-Trp + Acid 25] as the molecule, how does the “fraction of fluorescent probe displaced” value [1] read?
Answer: -0.019

Question: For `Cn1cc(C[C@@H]2NC(=O)CN(CCNC(=O)/C=C/c3ccc4ccccc4c3)C(=O)[C@@H]3CN(CCO3)C(=O)CCSSCCNC2=O)c2ccccc21` [X-Cop-N-Aeg-Me-Trp + Acid 112], which “fraction of fluorescent probe displaced” value [1] is on record?
Answer: 0.028

Question: With `O=C(NC[C@H]1NC(=O)[C@H]2CCCN(C2)C(=O)CCSSCCNC(=O)[C@H](Cc2c[nH]c3cc(Cl)ccc23)NC1=O)c1ccc(Cl)cc1` [X-Nip-D-Dap-Cl-Trp + Acid 25] as the molecule, how does the “fraction of fluorescent probe displaced” value [1] read?
Answer: 0.041

Question: `O=C(/C=C/c1ccc(Cl)cc1)NCCN1CC(=O)N[C@H](Cc2c[nH]c3ccccc23)C(=O)NCCSSCCC(=O)NCC2(CC2)C1=O` [X-Amcp-N-Aeg-D-Trp + Acid 108] was tested. Which “fraction of fluorescent probe displaced” value [1] did it give?
Answer: 0.035

Question: How did the “fraction of fluorescent probe displaced” value [1] turn out when `O=C1CN(CCNC(=O)c2cccc(Oc3ccccc3)c2)C(=O)[C@H]2CCCN(C2)C(=O)CCSSCCNC(=O)[C@H](Cc2c[nH]c3cc(Cl)ccc23)N1` [X-Nip-N-Aeg-Cl-Trp + Acid 111] was run?
Answer: -0.00533

Question: Which “fraction of fluorescent probe displaced” value [1] does the source give for `O=C(/C=C/c1ccncc1)NC[C@H]1NC(=O)[C@H]2CCCN(C2)C(=O)CCSSCCNC(=O)[C@H](Cc2c[nH]c3cc(Cl)ccc23)NC1=O` [X-Nip-D-Dap-Cl-Trp + Acid 106] here?
Answer: 0.018

Question: How did the “fraction of fluorescent probe displaced” value [1] turn out when `O=C1CCSSCCNC(=O)[C@@H](Cc2c[nH]c3ccccc23)NC(=O)[C@@H](CNC(=O)c2ccc(Cl)cc2)NC(=O)C2(CC2)CN1` [X-Amcp-D-Dap-D-Trp + Acid 25] was run?
Answer: 0.008

Question: For `O=C(NC[C@H]1NC(=O)[C@@H]2CN(CCO2)C(=O)CCSSCCNC(=O)[C@H](Cc2ccc3ccccc3c2)NC1=O)c1cccc(Oc2ccccc2)c1` [X-Cop-D-Dap-2-Nal + Acid 111], which “fraction of fluorescent probe displaced” value [1] is on record?
Answer: 0.00133

Question: For `CN1C(=O)CN(CCNC(=O)c2ccc3ccccc3c2)C(=O)C2(CC2)CNC(=O)CCSSCCNC(=O)[C@@H]1Cc1c[nH]c2ccccc12` [X-Amcp-N-Aeg-NMe-Trp + Acid 107], which “fraction of fluorescent probe displaced” value [1] is on record?
Answer: 0.031

Question: With `CN1C(=O)CN(CCNC(=O)CCS(=O)(=O)c2ccccc2)C(=O)[C@H]2CCCN(C2)C(=O)CCSSCCNC(=O)[C@@H]1Cc1c[nH]c2ccccc12` [X-Nip-N-Aeg-NMe-Trp + Acid 114] as the molecule, how does the “fraction of fluorescent probe displaced” value [1] read?
Answer: -0.00533

Question: `O=C(/C=C/c1ccc(OCc2ccccc2)cc1)NC[C@H]1NC(=O)[C@@H]2CN(CCO2)C(=O)CCSSCCNC(=O)[C@H](Cc2c[nH]c3ccccc23)NC1=O` [X-Cop-D-Dap-Trp + Acid 110] was tested. Which “fraction of fluorescent probe displaced” value [1] did it give?
Answer: -0.00533

Question: For `CN1C(=O)CN(CCNC(=O)c2cccc(Oc3ccccc3)c2)C(=O)C2(CC2)CNC(=O)CCSSCCNC(=O)[C@@H]1Cc1c[nH]c2ccccc12` [X-Amcp-N-Aeg-NMe-Trp + Acid 111], which “fraction of fluorescent probe displaced” value [1] is on record?
Answer: 0.00133

Question: With `CN1C(=O)[C@H](CNC(=O)CCS(=O)(=O)c2ccccc2)NC(=O)C2(CC2)CNC(=O)CCSSCCNC(=O)[C@@H]1Cc1c[nH]c2ccccc12` [X-Amcp-Dap-NMe-Trp + Acid 114] as the molecule, how does the “fraction of fluorescent probe displaced” value [1] read?
Answer: 0.055

Question: Which “fraction of fluorescent probe displaced” value [1] does the source give for `Cn1cc(C[C@@H]2NC(=O)CN(CCNC(=O)/C=C/c3ccc(OCc4ccccc4)cc3)C(=O)[C@H]3CCCN(C3)C(=O)CCSSCCNC2=O)c2ccccc21` [X-Nip-N-Aeg-Me-Trp + Acid 110] here?
Answer: 0.00133

Question: For `O=C(/C=C/c1ccc(Cl)cc1)NC[C@H]1NC(=O)C2(CC2)CNC(=O)CCSSCCNC(=O)[C@H](Cc2ccc3ccccc3c2)NC1=O` [X-Amcp-D-Dap-2-Nal + Acid 108], which “fraction of fluorescent probe displaced” value [1] is on record?
Answer: 0.008

Question: How did the “fraction of fluorescent probe displaced” value [1] turn out when `Cn1cc(C[C@@H]2NC(=O)CN(CCNC(=O)c3ccc4ccccc4c3)C(=O)C3(CC3)CNC(=O)CCSSCCNC2=O)c2ccccc21` [X-Amcp-N-Aeg-Me-Trp + Acid 107] was run?
Answer: -0.002

Question: Which “fraction of fluorescent probe displaced” value [1] does the source give for `CC(Oc1cccc(Cl)c1)C(=O)NCC1NC(=O)C2(CC2)CNC(=O)CCSSCCNC(=O)C(Cc2c[nH]c3cc(Cl)ccc23)NC1=O` (mixture of isomers) [X-Amcp-Dap-Cl-Trp + Acid 113] here?
Answer: -0.019

Question: `CC(Oc1cccc(Cl)c1)C(=O)NC[C@H]1NC(=O)[C@H]2CCCN(C2)C(=O)CCSSCCNC(=O)[C@H](Cc2cccc3ccccc23)NC1=O` (stereo partly drawn) [X-Nip-D-Dap-1-NaI + Acid 113] was tested. Which “fraction of fluorescent probe displaced” value [1] did it give?
Answer: 0.00133

Question: For `O=C1CN(CCNC(=O)c2ccc(Cl)cc2)C(=O)C2CN(CCO2)C(=O)CCSSCCNC(=O)C(Cc2c[nH]c3ccccc23)N1` (stereo not drawn) [X-Cop-N-Aeg-Trp + Acid 25], which “fraction of fluorescent probe displaced” value [1] is on record?
Answer: 0.055

Question: With `Cn1cc(C[C@@H]2NC(=O)[C@H](CNC(=O)/C=C/c3ccc4ccccc4c3)NC(=O)[C@H]3CCCN(C3)C(=O)CCSSCCNC2=O)c2ccccc21` [X-Nip-Dap-Me-Trp + Acid 112] as the molecule, how does the “fraction of fluorescent probe displaced” value [1] read?
Answer: 0.188

Question: How did the “fraction of fluorescent probe displaced” value [1] turn out when `CN1C(=O)[C@@H](CNC(=O)/C=C/c2ccc(Cl)cc2)NC(=O)[C@@H]2CN(CCO2)C(=O)CCSSCCNC(=O)[C@@H]1Cc1c[nH]c2ccccc12` [X-Cop-D-Dap-NMe-Trp + Acid 108] was run?
Answer: 0.008
